Assay results as given in the NIST ThermoML archive (doi:10.1021/je100369a).
± gives the expanded uncertainty stated by the source.

What was measured:
[1] = mn = molality of the nth substance listed, in mol/kg; details: 101 kPa, Liquid
[2] = 101.33 kPa, Liquid
[3] = refractive index (Na D-line) (dimensionless); details: 101.33 kPa, Liquid, Standard Abbe refractometry

Oc1ccccc1C=NCCN=Cc1ccccc1O [2,2'-[ethylenebis(nitrilomethylidyne)]diphenol] + CC(=O)N(C)C
mass density ([1]; 288.15 K, m1 = 0.0298): 946.92 ± 0.5 kg/m3
mass density ([1]; 288.15 K, m1 = 0.0503): 947.9 ± 0.51 kg/m3
mass density ([1]; 288.15 K, m1 = 0.0704): 948.86 ± 0.51 kg/m3
mass density ([1]; 288.15 K, m1 = 0.0902): 949.8 ± 0.5 kg/m3
mass density ([1]; 288.15 K, m1 = 0.11): 950.76 ± 0.53 kg/m3
mass density ([1]; 288.15 K, m1 = 0.13): 951.71 ± 0.53 kg/m3
mass density ([1]; 288.15 K, m1 = 0.151): 952.73 ± 0.54 kg/m3
mass density ([1]; 288.15 K, m1 = 0.1699): 953.61 ± 0.55 kg/m3
mass density ([1]; 288.15 K, m1 = 0.1898): 954.55 ± 0.55 kg/m3
mass density ([1]; 298.15 K, m1 = 0.0298): 937.72 ± 0.52 kg/m3
mass density ([1]; 298.15 K, m1 = 0.0503): 938.72 ± 0.53 kg/m3
mass density ([1]; 298.15 K, m1 = 0.0704): 939.69 ± 0.53 kg/m3
mass density ([1]; 298.15 K, m1 = 0.0902): 940.66 ± 0.54 kg/m3
mass density ([1]; 298.15 K, m1 = 0.11): 941.6 ± 0.54 kg/m3
mass density ([1]; 298.15 K, m1 = 0.13): 942.56 ± 0.55 kg/m3
mass density ([1]; 298.15 K, m1 = 0.151): 943.57 ± 0.56 kg/m3
mass density ([1]; 298.15 K, m1 = 0.1699): 944.49 ± 0.56 kg/m3
mass density ([1]; 298.15 K, m1 = 0.1898): 945.43 ± 0.57 kg/m3
mass density ([1]; 308.15 K, m1 = 0.0298): 928.51 ± 0.54 kg/m3
mass density ([1]; 308.15 K, m1 = 0.0503): 929.52 ± 0.54 kg/m3
mass density ([1]; 308.15 K, m1 = 0.0704): 930.5 ± 0.55 kg/m3
mass density ([1]; 308.15 K, m1 = 0.0902): 931.48 ± 0.55 kg/m3
mass density ([1]; 308.15 K, m1 = 0.11): 932.43 ± 0.56 kg/m3
mass density ([1]; 308.15 K, m1 = 0.13): 933.41 ± 0.57 kg/m3
mass density ([1]; 308.15 K, m1 = 0.151): 934.41 ± 0.57 kg/m3
mass density ([1]; 308.15 K, m1 = 0.1699): 935.35 ± 0.58 kg/m3
mass density ([1]; 308.15 K, m1 = 0.1898): 936.28 ± 0.59 kg/m3
mass density ([1]; 318.15 K, m1 = 0.0298): 919.27 ± 0.56 kg/m3
mass density ([1]; 318.15 K, m1 = 0.0503): 920.29 ± 0.56 kg/m3
mass density ([1]; 318.15 K, m1 = 0.0704): 921.29 ± 0.57 kg/m3
mass density ([1]; 318.15 K, m1 = 0.0902): 922.28 ± 0.57 kg/m3
mass density ([1]; 318.15 K, m1 = 0.11): 923.25 ± 0.58 kg/m3
mass density ([1]; 318.15 K, m1 = 0.13): 924.23 ± 0.58 kg/m3
mass density ([1]; 318.15 K, m1 = 0.151): 925.25 ± 0.59 kg/m3
mass density ([1]; 318.15 K, m1 = 0.1699): 926.19 ± 0.6 kg/m3
mass density ([1]; 318.15 K, m1 = 0.1898): 927.14 ± 0.6 kg/m3

CC(=O)N(C)C [N,N-dimethylethanamide]
mass density ([2]; 288.15 K): 945.5 ± 0.49 kg/m3
mass density ([2]; 298.15 K): 936.28 ± 0.51 kg/m3
mass density ([2]; 308.15 K): 927.05 ± 0.53 kg/m3
mass density ([2]; 318.18 K): 917.79 ± 0.55 kg/m3
refractive index ([3]; 288.15 K): 1.4382 ± 0.0006
refractive index ([3]; 298.15 K): 1.4346 ± 0.0006
refractive index ([3]; 308.15 K): 1.4312 ± 0.0006
refractive index ([3]; 318.18 K): 1.426 ± 0.0007

Oc1ccccc1C=NCCN=Cc1ccccc1O [2,2'-[ethylenebis(nitrilomethylidyne)]diphenol] + ClCCl
mass density ([1]; 283.15 K, m1 = 0.0306): 1342.32 ± 0.68 kg/m3
mass density ([1]; 283.15 K, m1 = 0.049): 1341.5 ± 0.69 kg/m3
mass density ([1]; 283.15 K, m1 = 0.0703): 1340.58 ± 0.69 kg/m3
mass density ([1]; 283.15 K, m1 = 0.0903): 1339.65 ± 0.69 kg/m3
mass density ([1]; 283.15 K, m1 = 0.1103): 1338.77 ± 0.7 kg/m3
mass density ([1]; 283.15 K, m1 = 0.1301): 1337.88 ± 0.7 kg/m3
mass density ([1]; 283.15 K, m1 = 0.15): 1337.01 ± 0.71 kg/m3
mass density ([1]; 283.15 K, m1 = 0.1702): 1336.07 ± 0.71 kg/m3
mass density ([1]; 283.15 K, m1 = 0.1911): 1335.14 ± 0.72 kg/m3
mass density ([1]; 288.15 K, m1 = 0.0306): 1333.32 ± 0.67 kg/m3
mass density ([1]; 288.15 K, m1 = 0.049): 1332.54 ± 0.67 kg/m3
mass density ([1]; 288.15 K, m1 = 0.0703): 1331.67 ± 0.68 kg/m3
mass density ([1]; 288.15 K, m1 = 0.0903): 1330.82 ± 0.68 kg/m3
mass density ([1]; 288.15 K, m1 = 0.1103): 1329.93 ± 0.68 kg/m3
mass density ([1]; 288.15 K, m1 = 0.1301): 1329.12 ± 0.69 kg/m3
mass density ([1]; 288.15 K, m1 = 0.15): 1328.26 ± 0.69 kg/m3
mass density ([1]; 288.15 K, m1 = 0.1702): 1327.34 ± 0.7 kg/m3
mass density ([1]; 288.15 K, m1 = 0.1911): 1326.47 ± 0.7 kg/m3
mass density ([1]; 293.15 K, m1 = 0.0306): 1324.26 ± 0.66 kg/m3
mass density ([1]; 293.15 K, m1 = 0.049): 1323.56 ± 0.66 kg/m3
mass density ([1]; 293.15 K, m1 = 0.0703): 1322.69 ± 0.66 kg/m3
mass density ([1]; 293.15 K, m1 = 0.0903): 1321.91 ± 0.67 kg/m3
mass density ([1]; 293.15 K, m1 = 0.1103): 1321.06 ± 0.67 kg/m3
mass density ([1]; 293.15 K, m1 = 0.1301): 1320.31 ± 0.67 kg/m3
mass density ([1]; 293.15 K, m1 = 0.15): 1319.5 ± 0.68 kg/m3
mass density ([1]; 293.15 K, m1 = 0.1702): 1318.65 ± 0.68 kg/m3
mass density ([1]; 293.15 K, m1 = 0.1911): 1317.78 ± 0.69 kg/m3
mass density ([1]; 298.15 K, m1 = 0.0306): 1315.18 ± 0.64 kg/m3
mass density ([1]; 298.15 K, m1 = 0.049): 1314.5 ± 0.64 kg/m3
mass density ([1]; 298.15 K, m1 = 0.0703): 1313.71 ± 0.65 kg/m3
mass density ([1]; 298.15 K, m1 = 0.0903): 1312.95 ± 0.65 kg/m3
mass density ([1]; 298.15 K, m1 = 0.1103): 1312.16 ± 0.66 kg/m3
mass density ([1]; 298.15 K, m1 = 0.1301): 1311.43 ± 0.66 kg/m3
mass density ([1]; 298.15 K, m1 = 0.15): 1310.67 ± 0.66 kg/m3
mass density ([1]; 298.15 K, m1 = 0.1702): 1309.84 ± 0.67 kg/m3
mass density ([1]; 298.15 K, m1 = 0.1911): 1309.07 ± 0.68 kg/m3

ClC(Cl)Cl [trichloromethane]
mass density ([2]; 283.15 K): 1496.43 ± 1.1 kg/m3
mass density ([2]; 288.15 K): 1487.09 ± 1.1 kg/m3
mass density ([2]; 293.15 K): 1477.68 ± 1 kg/m3
mass density ([2]; 298.15 K): 1468.28 ± 1 kg/m3
refractive index ([3]; 283.15 K): 1.45 ± 0.0007
refractive index ([3]; 288.15 K): 1.4471 ± 0.0007
refractive index ([3]; 293.15 K): 1.4439 ± 0.0007
refractive index ([3]; 298.15 K): 1.442 ± 0.0006

Oc1ccccc1C=NCCN=Cc1ccccc1O [2,2'-[ethylenebis(nitrilomethylidyne)]diphenol] + CN(C)C=O
mass density ([1]; 288.15 K, m1 = 0.0302): 954.99 ± 0.49 kg/m3
mass density ([1]; 288.15 K, m1 = 0.049): 955.87 ± 0.49 kg/m3
mass density ([1]; 288.15 K, m1 = 0.0701): 956.86 ± 0.5 kg/m3
mass density ([1]; 288.15 K, m1 = 0.0913): 957.85 ± 0.5 kg/m3
mass density ([1]; 288.15 K, m1 = 0.1101): 958.72 ± 0.51 kg/m3
mass density ([1]; 288.15 K, m1 = 0.1238): 959.36 ± 0.52 kg/m3
mass density ([1]; 288.15 K, m1 = 0.1483): 960.5 ± 0.52 kg/m3
mass density ([1]; 288.15 K, m1 = 0.1702): 961.48 ± 0.53 kg/m3
mass density ([1]; 288.15 K, m1 = 0.1886): 962.35 ± 0.54 kg/m3
mass density ([1]; 298.15 K, m1 = 0.0302): 945.49 ± 0.5 kg/m3
mass density ([1]; 298.15 K, m1 = 0.049): 946.39 ± 0.51 kg/m3
mass density ([1]; 298.15 K, m1 = 0.0701): 947.39 ± 0.52 kg/m3
mass density ([1]; 298.15 K, m1 = 0.0913): 948.39 ± 0.52 kg/m3
mass density ([1]; 298.15 K, m1 = 0.1101): 949.27 ± 0.53 kg/m3
mass density ([1]; 298.15 K, m1 = 0.1238): 949.91 ± 0.53 kg/m3
mass density ([1]; 298.15 K, m1 = 0.1483): 951.05 ± 0.54 kg/m3
mass density ([1]; 298.15 K, m1 = 0.1702): 952.08 ± 0.55 kg/m3
mass density ([1]; 298.15 K, m1 = 0.1886): 952.94 ± 0.55 kg/m3
mass density ([1]; 308.15 K, m1 = 0.0302): 935.97 ± 0.52 kg/m3
mass density ([1]; 308.15 K, m1 = 0.049): 936.88 ± 0.53 kg/m3
mass density ([1]; 308.15 K, m1 = 0.0701): 937.89 ± 0.53 kg/m3
mass density ([1]; 308.15 K, m1 = 0.0913): 938.9 ± 0.54 kg/m3
mass density ([1]; 308.15 K, m1 = 0.1101): 939.79 ± 0.55 kg/m3
mass density ([1]; 308.15 K, m1 = 0.1238): 940.44 ± 0.55 kg/m3
mass density ([1]; 308.15 K, m1 = 0.1483): 941.6 ± 0.56 kg/m3
mass density ([1]; 308.15 K, m1 = 0.1702): 942.63 ± 0.57 kg/m3
mass density ([1]; 308.15 K, m1 = 0.1886): 943.48 ± 0.57 kg/m3
mass density ([1]; 318.15 K, m1 = 0.0302): 926.38 ± 0.54 kg/m3
mass density ([1]; 318.15 K, m1 = 0.049): 927.29 ± 0.55 kg/m3
mass density ([1]; 318.15 K, m1 = 0.0701): 928.32 ± 0.55 kg/m3
mass density ([1]; 318.15 K, m1 = 0.0913): 929.35 ± 0.56 kg/m3
mass density ([1]; 318.15 K, m1 = 0.1101): 930.25 ± 0.56 kg/m3
mass density ([1]; 318.15 K, m1 = 0.1238): 930.91 ± 0.57 kg/m3
mass density ([1]; 318.15 K, m1 = 0.1483): 932.08 ± 0.58 kg/m3
mass density ([1]; 318.15 K, m1 = 0.1702): 933.14 ± 0.58 kg/m3
mass density ([1]; 318.15 K, m1 = 0.1886): 933.99 ± 0.59 kg/m3
